Assay in all cases: ≥ marks a high value that may be exact or a test limit, other limits are often not marked, values filed in µg/mL are converted to µM
Assay [1] has as its system Escherichia coli IFO 3301.
Assay [2] has as its system Bacillus subtilis IFO 3336.
Assay [3] relates to Staphylococcus aureus ATCC 25923.
Assay [4] concerns Enterococcus faecium ATCC 700221.
Assay [5] relates to Candida albicans ATCC 200955.
In assay [6] the test system is Pseudomonas aeruginosa ATCC 27853.
For assay [7], the system named is Staphylococcus aureus ATCC 33591.
For assay [8], the system named is Klebsiella pneumoniae ATCC 43816.
Assay [9] has as its system Pseudomonas aeruginosa ATCC 9027.
Assay [10] has as its system Staphylococcus aureus NCTC 12493.
For assay [11], the system named is Staphylococcus aureus NCTC 10788.
Assay [12] concerns Bacillus subtilis ATCC 6633.
The test system of assay [13] is Enterococcus faecium ATCC 19434.
For assay [14], the system named is Proteus mirabilis CCUG 26767.
Assay [15] relates to Enterococcus faecium NTCC 12697.
The subject of assay [16] is Staphylococcus aureus ATCC 29213.
Assay [17] relates to Klebsiella pneumoniae ATCC 13883.
Assay [18] has as its system Bacillus subtilis.
Assay [19] has as its system Escherichia coli W160-37.
Assay [20] concerns Escherichia coli ATCC 8739.
Assay [21] relates to Escherichia coli ATCC 25922.
The subject of assay [22] is Enterococcus faecalis ATCC 19433.
Assay [23] relates to Staphylococcus aureus ATCC 8530.
The subject of assay [24] is Salmonella enterica subsp. enterica serovar Typhimurium LT2.
Assay [25] concerns Bacillus pumilus.
Assay [26] concerns Shigella dysenteriae.
Assay [27] concerns Candida albicans ATCC 2002.
The test system of assay [28] is Pseudomonas aeruginosa.
Assay [29] has as its system Staphylococcus aureus ATCC 2592.
The test system of assay [30] is Bacillus cereus.
Assay [31] has as its system Acinetobacter calcoaceticus.
Assay [32] concerns Bacillus subtilis DELTA.
Assay [33] relates to Zymomonas mobilis ATCC 10988.
The subject of assay [34] is Escherichia coli DH5alpha.
The test system of assay [35] is Pseudomonas aeruginosa PAO1.
Assay [36] deals with Candida parapsilosis.
Assay [37] has as its system Staphylococcus epidermidis.
In assay [38] the test system is Salmonella typhimurium.
Assay [39] relates to Proteus vulgaris.
For assay [40], the system named is Streptococcus pyogenes.
Assay [41] has as its system Escherichia coli.

In brackets after ≈: the same amount, converted by molar mass.

For the compound `NC(N)=NCCC[C@H](NC(=O)[C@H](Cc1cnc[nH]1)NC(=O)[C@H](CCCN=C(N)N)NC(=O)[C@H](Cc1cnc[nH]1)NC(=O)[C@H](CCCN=C(N)N)NC(=O)[C@H](Cc1cnc[nH]1)NC(=O)[C@H](CCCN=C(N)N)NC(=O)[C@H](Cc1cnc[nH]1)NC(=O)[C@H](CCCN=C(N)N)NC(=O)[C@H](Cc1cnc[nH]1)NC(=O)[C@@H](N)CCCN=C(N)N)C(=O)N[C@@H](Cc1cnc[nH]1)C(=O)O` [RHRHRHRHRHRH], the MIC in [1] and in assay [2] was 5.62 µM (≈ 10 µg/mL) each time.
For the compound `CC[C@H](C)[C@H](NC(=O)[C@H](Cc1c[nH]c2ccccc12)NC(=O)[C@H](CCCCN)NC(=O)[C@H](CC(C)C)NC(=O)[C@H](CC(C)C)NC(=O)CN)C(=O)N[C@@H](CCCCN)C(=O)N[C@H](C(=O)N[C@@H](CC(C)C)C(=O)N[C@@H](CC(C)C)C(N)=O)[C@@H](C)O` [GLLKWIKTLL], the MIC (in general, the smallest concentration in the dilution series that meets the test's criterion for growth inhibition) in assay [3] was determined as 1.69 µM (≈ 2 µg/mL); in assay [4], 9.5 µM (≈ 11.2 µg/mL); in [5], 28.4 µM (≈ 33.6 µg/mL); in assay [6] it was 28.4 µM (≈ 33.6 µg/mL); in [7], 9.5 µM (≈ 11.2 µg/mL).
On to `CC[C@H](C)[C@H](NC(=O)[C@H](CC(C)C)NC(=O)[C@@H]1CCCN1C(=O)[C@H](CC(C)C)NC(=O)[C@@H](N)Cc1ccccc1)C(=O)N[C@@H](CC(C)C)C(=O)N[C@@H](CCCN=C(N)N)C(=O)N[C@@H](CCCCN)C(=O)N[C@H](C(=O)N[C@H](C(=O)N[C@H](C(=O)N[C@@H](C)C(=O)N[C@@H](CC(C)C)C(N)=O)[C@@H](C)O)C(C)C)[C@@H](C)CC` [FLPLILRKIVTAL], for which the MIC was no less than 64 µM in [8]; 128 µM (≈ 191 µg/mL) in assay [9]; 4 µM (≈ 5.98 µg/mL) in assay [10]; 2 µM (≈ 2.99 µg/mL) in assay [11]; no less than 200 µM in assay [12]; no less than 50.1 µM in [13]. The MIC was no less than 401 µM in [14]; 16 µM (≈ 23.9 µg/mL) in assay [15]; 200 µM (≈ 300 µg/mL) in [16]; no less than 401 µM in [17]; no less than 50.1 µM in assay [18]; greater than 401 µM in [6]. The MIC is no less than 100 µM in assay [19]; no less than 32 µM in [20]; 200 µM (≈ 300 µg/mL) in assay [21]; no less than 100 µM in assay [22]; no less than 200 µM in assay [23]; no less than 200 µM in assay [24].
`CC[C@H](C)[C@H](NC(=O)[C@@H]1CCCN1C(=O)[C@H](CC(C)C)NC(=O)[C@@H](N)Cc1ccccc1)C(=O)N[C@H](C(=O)NCC(=O)N[C@@H](CCCCN)C(=O)N[C@@H](CC(C)C)C(=O)N[C@@H](CC(C)C)C(=O)N[C@@H](CO)C(=O)NCC(=O)N[C@@H](CC(C)C)C(=O)N[C@@H](CO)C(=O)NCC(=O)N[C@@H](CC(C)C)C(=O)N[C@@H](CO)C(N)=O)C(C)C` [FLPIVGKLLSGLSGLS]: the MIC was found to be 4.68 µM (≈ 7.5 µg/mL) in assay [25]; 12.5 µM (≈ 20 µg/mL) in assay [26]; 1.56 µM (≈ 2.5 µg/mL) in assay [27]; 1.56 µM (≈ 2.5 µg/mL) in [28]; 1.56 µM (≈ 2.5 µg/mL) in assay [29]; 3.12 µM (≈ 5 µg/mL) in assay [21]. The MIC in assay [30] was no less than 46.8 µM; in assay [31] it was no less than 37.5 µM.
Turning to `CC[C@H](C)[C@H](NC(=O)[C@@H]1CCCN1C(=O)[C@H](Cc1ccccc1)NC(=O)[C@@H](N)Cc1ccccc1)C(=O)N[C@H](C(=O)NCC(=O)N[C@@H](CCCCN)C(=O)N[C@@H](CC(C)C)C(=O)N[C@@H](CC(C)C)C(=O)N[C@@H](Cc1ccccc1)C(=O)NCC(=O)N[C@@H](CC(C)C)C(=O)N[C@@H](Cc1ccccc1)C(=O)NCC(=O)N[C@@H](CC(C)C)C(=O)N[C@@H](CC(C)C)C(N)=O)C(C)C` [FFPIVGKLLFGLFGLL], the MIC in [25] stood at 1.4 µM (≈ 2.5 µg/mL); in assay [26], 5.61 µM (≈ 9.99 µg/mL); in assay [27] it was 0.702 µM (≈ 1.25 µg/mL); in assay [28] it was 4.21 µM (≈ 7.5 µg/mL); in assay [29], 1.4 µM (≈ 2.5 µg/mL); in assay [21], 2.81 µM (≈ 5 µg/mL). In addition, the MIC in assay [30] and in assay [31] was 16.8 µM (≈ 30 µg/mL) in each case.
With `CC[C@H](C)[C@H](NC(=O)[C@H](Cc1ccccc1)NC(=O)[C@H](CCCCN)NC(=O)[C@H](CC(C)C)NC(=O)[C@H](CC(C)C)NC(=O)CN)C(=O)N[C@@H](CCCCN)C(=O)N[C@@H](CCCN=C(N)N)C(=O)N[C@@H](CC(C)C)C(=O)N[C@@H](CC(C)C)C(N)=O` [GLLKFIKRLL], the MIC is no less than 167 µM in assay [32]; 4.16 µM (≈ 5 µg/mL) in assay [33]; no less than 167 µM in [34]; 2.5 µM (≈ 3 µg/mL) in [35]; 8.33 µM (≈ 9.99 µg/mL) in assay [36].
For `CC[C@H](C)[C@H](NC(=O)[C@H](Cc1ccc(O)cc1)NC(=O)[C@@H](NC(=O)[C@@H]1CCCN1C(=O)[C@H](CCCN=C(N)N)NC(=O)[C@H](CC(N)=O)NC(=O)[C@H](CC(N)=O)NC(=O)CNC(=O)[C@@H]1CCCN1C(=O)[C@H](CCC(=O)O)NC(=O)[C@H](C)NC(=O)[C@H](CCC(=O)O)NC(=O)[C@@H]1CCCN1C(=O)[C@H](CCC(=O)O)NC(=O)[C@H](C)NC(=O)[C@H](CCC(=O)O)NC(=O)[C@H](CCCN=C(N)N)NC(=O)[C@@H](N)CCCN=C(N)N)C(C)C)C(=O)N1CCC[C@H]1C(=O)N[C@@H](CCC(N)=O)C(=O)N1CCC[C@H]1C(=O)N[C@@H](CCCN=C(N)N)C(=O)N1CCC[C@H]1C(=O)N1CCC[C@H]1C(=O)N[C@@H](Cc1cnc[nH]1)C(=O)N1CCC[C@H]1C(=O)N[C@@H](CCCN=C(N)N)C(=O)N[C@@H](CC(C)C)C(=O)O` [RREAEPEAEPGNNRPVYIPQPRPPHPRL], the MIC was no less than 64 µM in [37]; 2 µM (≈ 6.55 µg/mL) in assay [38]; no less than 64 µM in assay [39]; 64 µM (≈ 210 µg/mL) in [28]; no less than 64 µM in assay [40]; no less than 64 µM in assay [18]. In addition, in [41], the MIC is 64 µM (≈ 210 µg/mL).
Turning to `NC(N)=NCCC[C@H](NC(=O)[C@H](Cc1cnc[nH]1)NC(=O)[C@@H](N)CCCN=C(N)N)C(=O)N[C@@H](Cc1cnc[nH]1)C(=O)O` [RHRH], the MIC in assay [1] and in [2] was no less than 827 µM in each case.

The record behind these values is DBAASP.
